Data on eight compounds can be found in ChEMBL document CHEMBL1149918, “Novel 1,5-benzodiazepindione gastrin/CCKB antagonists” (Bioorg Med Chem Lett, 1997).

The target in series [1] is T1, Gastrin/cholecystokinin type B receptor (Rattus norvegicus) (UniProt P30553).
T1 sequence (whole entry): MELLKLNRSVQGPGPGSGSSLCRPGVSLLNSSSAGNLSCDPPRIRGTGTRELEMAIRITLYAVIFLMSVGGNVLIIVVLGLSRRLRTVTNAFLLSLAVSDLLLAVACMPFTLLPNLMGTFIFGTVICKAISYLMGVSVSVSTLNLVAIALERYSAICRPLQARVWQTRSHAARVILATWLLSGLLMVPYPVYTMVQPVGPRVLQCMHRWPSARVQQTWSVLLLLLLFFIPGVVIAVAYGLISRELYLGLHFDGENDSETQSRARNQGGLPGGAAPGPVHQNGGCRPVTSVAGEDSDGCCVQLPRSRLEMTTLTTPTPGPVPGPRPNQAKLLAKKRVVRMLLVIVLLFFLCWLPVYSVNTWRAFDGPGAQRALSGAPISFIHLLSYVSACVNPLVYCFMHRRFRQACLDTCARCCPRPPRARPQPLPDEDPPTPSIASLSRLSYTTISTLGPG
The series is described as follows: Tested for selectivity toward gastrin receptor by the ability to block pentagastrin stimulated acid secretion from isolated rat gastric mucosa (RGM). Type of series: tissue-based.

The target of series [2] is T2, Cholecystokinin receptor type A (Cavia porcellus) (UniProt Q63931).
T2 sequence (whole entry): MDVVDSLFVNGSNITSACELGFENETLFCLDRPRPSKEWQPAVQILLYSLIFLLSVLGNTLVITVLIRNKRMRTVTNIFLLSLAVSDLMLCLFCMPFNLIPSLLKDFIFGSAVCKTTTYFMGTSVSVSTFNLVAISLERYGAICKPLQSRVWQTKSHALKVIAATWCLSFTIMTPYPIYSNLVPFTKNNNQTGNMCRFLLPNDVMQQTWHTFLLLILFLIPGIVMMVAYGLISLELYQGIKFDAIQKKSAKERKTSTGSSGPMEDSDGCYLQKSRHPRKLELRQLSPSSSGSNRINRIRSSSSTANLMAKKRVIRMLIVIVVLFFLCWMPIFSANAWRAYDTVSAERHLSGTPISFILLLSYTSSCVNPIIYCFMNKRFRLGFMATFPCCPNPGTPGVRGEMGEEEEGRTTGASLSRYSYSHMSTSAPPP
The series is described as follows: Tested for selectivity toward Cholecystokinin type A receptor by guinea -pig isolated ileum longitudinal muscle-myenteric plexus (GPI) assay. Format: tissue-based.

Series [3] concerns the target T1, Gastrin/cholecystokinin type B receptor (Rattus norvegicus). As to conditions: Gastric mucosa.
Series [4] has as its target T3, Gastrin/cholecystokinin type B receptor (Homo sapiens, UniProt P32239).
T3 sequence (P32239 whole entry): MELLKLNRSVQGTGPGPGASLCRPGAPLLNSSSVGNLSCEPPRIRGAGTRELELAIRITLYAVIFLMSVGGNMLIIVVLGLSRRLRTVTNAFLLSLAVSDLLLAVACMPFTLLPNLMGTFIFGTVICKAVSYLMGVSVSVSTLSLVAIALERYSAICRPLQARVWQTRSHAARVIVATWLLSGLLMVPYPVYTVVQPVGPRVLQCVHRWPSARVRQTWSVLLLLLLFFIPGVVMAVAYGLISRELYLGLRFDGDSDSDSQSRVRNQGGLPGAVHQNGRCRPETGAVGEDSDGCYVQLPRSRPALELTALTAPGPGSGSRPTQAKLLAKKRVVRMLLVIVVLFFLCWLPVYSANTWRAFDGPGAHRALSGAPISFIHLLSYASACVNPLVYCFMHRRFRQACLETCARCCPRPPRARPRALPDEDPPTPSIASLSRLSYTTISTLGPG
In words: Tested for its selectivity against human Cholecystokinin type B receptor isolated from a human temporal cortex cDNA library and stably transfected into a HeLa cell line. (n=1). Type of series: cell-based.

Series [5] deals with T4, Cholecystokinin receptor type A (Homo sapiens, UniProt P32238).
T4 sequence (P32238 whole entry): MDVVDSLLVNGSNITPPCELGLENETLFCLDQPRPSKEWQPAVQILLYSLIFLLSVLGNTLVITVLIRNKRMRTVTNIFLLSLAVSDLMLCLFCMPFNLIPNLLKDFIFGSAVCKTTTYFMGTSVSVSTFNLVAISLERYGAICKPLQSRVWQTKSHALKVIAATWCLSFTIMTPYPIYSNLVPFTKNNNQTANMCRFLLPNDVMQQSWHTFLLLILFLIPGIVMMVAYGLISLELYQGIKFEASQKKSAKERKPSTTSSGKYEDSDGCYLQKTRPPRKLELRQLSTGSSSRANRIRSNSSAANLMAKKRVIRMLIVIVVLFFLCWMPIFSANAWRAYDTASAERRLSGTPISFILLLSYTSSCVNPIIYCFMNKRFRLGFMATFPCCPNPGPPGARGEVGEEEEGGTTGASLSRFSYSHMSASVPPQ
The series is described as follows: Tested for its selectivity against human Cholecystokinin type A receptor isolated from a human gallbladder cDNA library and stably transfected into a COSM6 cell line; (n=1). Format: cell-based.

Series [6] can be described thus: Oral bioavailability in rat. Type of series: ADME, organism-based. As to conditions: in vivo.
A short description of series [7]: Compound was tested for plasma clearance in rat. Format: ADME, organism-based. To be noted: read-out: Clp.
Series [8] has as its system Rattus norvegicus. In words: Tested for its ability to inhibit acid secretion in the pentagastrin stimulated gastric fistula rat model by intra gastric dose of 1 mg/kg. Format: functional. To be noted: Stomach.
Series [9] deals with Rattus norvegicus. The series is described as follows: Tested for its ability to inhibit acid secretion in the pentagastrin stimulated gastric fistula rat model by intravenous dose of 0.1 mg/kg. To be noted: Stomach. Type of series: functional.
Series [10] has as its system Rattus norvegicus. In words: Compound was tested for its ability to inhibit acid secretion in the pentagastrin stimulated gastric fistula rat model by intravenous dose of 1 mg/kg. As to conditions: Stomach. Format: functional.
The test system of series [11] is Rattus norvegicus. In words: Compound was tested for its ability to inhibit acid secretion in the pentagastrin stimulated gastric fistula rat model by intra gastric dose of 1 mg/kg. Type of series: functional. As to conditions: Stomach.
Series [12] concerns the target T4, Cholecystokinin receptor type A. The series is described as follows: Tested for its selectivity against human Cholecystokinin type A receptor isolated from a human gallbladder cDNA library and stably transfected into a COSM6 cell line (n=1). Type of series: cell-based.
Series [13] deals with Rattus norvegicus. The series is described as follows: Tested for its ability to inhibit acid secretion in the pentagastrin stimulated gastric fistula rat model by intravenous dose of 0.3 mg/kg. As to conditions: Stomach. Type of series: functional.
Series [14] has as its system Rattus norvegicus. In words: Tested for its ability to inhibit acid secretion in the pentagastrin stimulated gastric fistula rat model by intra gastric dose of 0.3 mg/kg. Format: functional. As to conditions: Stomach.

For `O=C(Nc1cccc(C(=O)O)c1)NC1C(=O)N(CC(=O)N2CCCC2)c2ccccc2N(c2ccccc2)C1=O` (stereo unspecified), the figures for the pKB in [1] and in [2] were 8.6 and 5.7, respectively.

In the case of `Cc1cccc(NC(=O)N[C@@H]2N=C(c3ccccc3)c3ccccc3N(C)C2=O)c1`, the pKB in series [3] is 7.6; in series [2], 7.7.

Turning to `O=C(Nc1ccccc1)NC1C(=O)N(CC(=O)N2CCCC2)c2ccccc2N(c2ccccc2)C1=O` (stereo unspecified), the figures for the pKB in [1] and in series [2] were 8.5 and 7.3, respectively.

As to `O=C(Nc1ccc(F)cc1)N[C@H]1C(=O)N(CC(=O)N2CCCC2)c2ccccc2N(C2CCCCCC2)C1=O`, the Ki is 1.58 nM in series [4] and 79.4 nM in series [5]. Moreover, in series [6], the bioavailability was 10%.

For `O=C(Nc1ccc(F)cc1)NC1C(=O)N(CC(=O)N2CC3CCC(CC3)C2)c2ccccc2N(c2ccccc2F)C1=O` (racemic), the Ki in series [4] was 0.398 nM; in series [5], 10 nM. Also, the bioavailability in series [6] is 7%. In addition, the clearance in [7] worked out at 28 mL/min/kg.

Turning to `O=C(Nc1cccc(C2N=NN=N2)c1)NC1C(=O)N(CC(=O)N2CCCC2)c2ccccc2N(c2ccccc2)C1=O` (stereo unspecified), 1 mg/kg produced 45% inhibition in vivo in the series on Rattus norvegicus [8]. The inhibition in vivo at 0.1 mg/kg in the series with Rattus norvegicus [9] is 79%. Besides, the figures for the pKB in [1] and in series [2] were 10.3 and 7.4, respectively.

For the compound `O=C(Nc1ccc(F)cc1)NC1C(=O)N(CC(=O)N2CCCC2)c2ccccc2N(c2ccccc2F)C1=O` (stereo unspecified), the figures for the Ki in [4] and in [12] were 12.6 nM and 50.1 nM, respectively. In addition, the inhibition in vivo at 1 mg/kg in the series on Rattus norvegicus [10] was 86%; in the series on Rattus norvegicus [11], 73%. The pKB in [1] was 8.6; in series [2] it was 6.8. This compound also yielded a bioavailability in [6] of 68%. For the same compound, the clearance in [7] amounted to 15 mL/min/kg.

Take `O=C(Nc1ccc(F)cc1)N[C@H]1C(=O)N(CC(=O)N2CCCC2)c2ccccc2N(C2CCCCC2)C1=O`: the Ki is 2.51 nM in series [4] and 79.4 nM in [5]. Moreover, the inhibition in vivo at 0.3 mg/kg in the series on Rattus norvegicus [13] is 60%; with Rattus norvegicus [14], 67%. In series [6], this compound registered a bioavailability of 23%. The clearance in series [7] was 36 mL/min/kg.

The pKB is the negative decadic logarithm of the KB, by convention in mol/L. Read a low pKB as a high KB. Broadly, the Ki is the dissociation constant of the complex between target and ligand, obtained from inhibition or displacement. Lower therefore signals tighter binding. The term bioavailability denotes dose-corrected exposure relative to a reference, in per cent. Low values mean poor availability, high ones good availability. One may read the inhibition in vivo as the percentage by which the read-out fell short of the control. The low end stands for little suppression, the high end for strong suppression.
